This is an account of results in ChEMBL document CHEMBL3132778, “Structureactivity relationships of tetrahydrocarbazole derivatives as antifungal lead compounds” (Medchemcomm, 2013).

Converted amounts (≈) assume the structure as drawn.

Test [1] in a line: Inhibition of Saccharomyces cerevisiae NMT.
The next test deals with Kluyveromyces marxianus. Description: Antifungal activity against Candida kefyr after 24 hrs by serial dilution method. Format: functional.
A further test deals with Aspergillus fumigatus. Briefly: Antifungal activity against Aspergillus fumigatus after 7 days by serial dilution method. Format: functional. Conditions: 168 h.
A further test relates to Trichophyton rubrum. Description: Antifungal activity against Trichophyton rubrum by serial dilution method. Format: functional.
The test system of a further test is Nannizzia gypsea. Description: Antifungal activity against Microsporum gypseum by serial dilution method. Type of test: functional.
For the next test, the system named is Candida albicans. Briefly: Antifungal activity against Candida albicans after 24 hrs by serial dilution method. Type of test: functional.
For another test, the system named is Cryptococcus neoformans. Briefly: Antifungal activity against Cryptococcus neoformans after 72 hrs by serial dilution method. Type of test: functional.
Another test relates to Candida parapsilosis. Description: Antifungal activity against Candida parapsilosis after 24 hrs by serial dilution method. Format: functional. Conditions: Lodderomyces parapsilosis.
The next test relates to Candida tropicalis. Briefly: Antifungal activity against Candida tropicalis after 24 hrs by serial dilution method. Type of test: functional.

Usually IC50 stands for the concentration at which inhibition is half-maximal. The low end stands for inhibition by little substance, the high end for a need for much substance. One may read the MIC80 as the lowest concentration that inhibits either 80% of growth or 80% of the strains tested, depending on the study.

As for `Cc1ccc2c(c1)c1c(n2C[C@@H](O)CNC2CCCCC2)CCCC1`, the IC50 in test [1] turned out to be 24 nM. Also, the MIC80 with Kluyveromyces marxianus was 64 µg/mL (≈ 188 µM); against Aspergillus fumigatus, 64 µg/mL (≈ 188 µM); against Trichophyton rubrum, 16 µg/mL (≈ 47 µM); in the test on Nannizzia gypsea, 16 µg/mL (≈ 47 µM); in the test with Candida albicans it was 64 µg/mL (≈ 188 µM); in the test with Cryptococcus neoformans it was 16 µg/mL (≈ 47 µM). In addition, the results for the MIC80 in the test with Candida parapsilosis and against Candida tropicalis were 16 µg/mL (≈ 47 µM) and 64 µg/mL (≈ 188 µM), respectively.
For the molecule `OC(Cn1cncn1)(Cn1cncn1)c1ccc(F)cc1F` [FLUCONAZOLE], the MIC80 was 4 µg/mL (≈ 13.1 µM) against Kluyveromyces marxianus; > 64 µg/mL with Aspergillus fumigatus; 1 µg/mL (≈ 3.27 µM) with Trichophyton rubrum; 1 µg/mL (≈ 3.27 µM) in the test on Nannizzia gypsea; 0.5 µg/mL (≈ 1.63 µM) in the test on Candida albicans; 1 µg/mL (≈ 3.27 µM) in the test on Cryptococcus neoformans. Moreover, the MIC80 against Candida parapsilosis turned out to be 4 µg/mL (≈ 13.1 µM); in the test with Candida tropicalis it was 2 µg/mL (≈ 6.53 µM).
